Experiments:
platelet CD62 [1] = assay: DDPASFCA in alternative microtiter plates (Costar Serocluster #3897 versus #3898); type: cell-based, human; settings: with minus without Compound A 200 nM
Experimental: ADP and DPC38 were used as sources of DDPASs. 2 μL of citrated PRP (DPC3) was added to either Costar Serocluster® 96 well V-bottom microtiterplates (#3897) or #3898 microtiter plates (Costar Serocluster®) (rated as “hydrophilic” in nature by the manufacturer). Platelets were then treated with and without Compound A (200 nM) with the indicated concentrations of ADP. Similarly, DDPAS positive PRP (DPC38) was added to wells of both types of plates and treated with and without Compound A (200 nM). Reactions were incubated without shaking for 120 minutes. After this time, 20 μL of phycoerythrin conjugated anti-CD62 (anti-CD62-PE, Bectin Dickinson) was added. After 30 minutes the samples were diluted with 150 μL flow buffer and bound anti-CD62-PE measured as described in Example 1.
Delta SC=Delta Fluorescence for Costar Serocluster microtiter plates
Delta H=Delta Fluorescence for H3898 microtiter plates

platelet CD62 [2] = assay: Detection of ADP as a GPIIb/IIIa DDPAS by DDPASFCA; type: cell-based, human; settings: for + compound Med F12: + Compound A 1 μM; for no compound Med F12: no Compound A; for Delta Med F12: with minus without Compound A 1 μM
Experimental: Adenosine diphosphate (ADP) was evaluated as a possible DDPAS as follows: Compound A (final concentration 1 μM) or vehicle was added to 25 μL of freshly prepared PRP in wells of a 96-well microtiter plate. Another set of wells received vehicle. After 10 minutes, 2.5 μL of from each well was transferred to microtiter wells containing only 20 μL of anti-CD62-PE. After incubation for 30 minutes, samples were analyzed by flow cytometry as in Example 1.

[3] = platelet donor DPC3, ADP 100 uM

Compound: Nc1ncnc2c1ncn2[C@@H]1O[C@H](COP(=O)(O)OP(=O)(O)O)[C@@H](O)[C@H]1O [ADP, Adenosine diphosphate]
- Delta CS (Delta Fluorescence for Costar Serocluster microtiter plates) (platelet CD62 [1]; platelet donor DPC3, ADP 10 uM): 89
- Delta H (Delta Fluorescence for H3898 microtiter plates) (platelet CD62 [1]; platelet donor DPC3, ADP 10 uM): 157
- Delta CS (Delta Fluorescence for Costar Serocluster microtiter plates) (platelet CD62 [1]; [3]): 82
- Delta H (Delta Fluorescence for H3898 microtiter plates) (platelet CD62 [1]; [3]): 168
- + compound Med F12 (platelet CD62 [2]; ADP 0.4 μM final): 20
- no compound Med F12 (platelet CD62 [2]; ADP 0.4 μM final): 14
- Delta Med F12 (platelet CD62 [2]; ADP 0.4 μM final): 5
- + compound Med F12 (platelet CD62 [2]; ADP 2 μM final): 89
- no compound Med F12 (platelet CD62 [2]; ADP 2 μM final): 48
- Delta Med F12 (platelet CD62 [2]; ADP 2 μM final): 40
- + compound Med F12 (platelet CD62 [2]; ADP 10 μM final): 208
- no compound Med F12 (platelet CD62 [2]; ADP 10 μM final, PRP, 10 minutes): 126
- Delta Med F12 (platelet CD62 [2]; ADP 10 μM final): 82

From patent US20020132276A1, “FACS method for detecton of GPIIb/IIIa inhibitor dependent activators in plasma samples” (priority 1999, published 2002)
